Assay results: ChEMBL document CHEMBL4371076 (J Med Chem, 2019)
Calls of active or inactive are those of the source. No cut-off for these calls is given here.

Legend:
[1] = Permeability of the compound at pH 5.5 by PAMPA; format: ADME; details: read-out: permeability
[2] = target: T1, Cytochrome P450 2B6 (Homo sapiens, UniProt P20813); experiment: Time-dependant inhibition of CYP2B6 in human liver microsomes; format: ADME
T1 sequence (P20813 whole entry): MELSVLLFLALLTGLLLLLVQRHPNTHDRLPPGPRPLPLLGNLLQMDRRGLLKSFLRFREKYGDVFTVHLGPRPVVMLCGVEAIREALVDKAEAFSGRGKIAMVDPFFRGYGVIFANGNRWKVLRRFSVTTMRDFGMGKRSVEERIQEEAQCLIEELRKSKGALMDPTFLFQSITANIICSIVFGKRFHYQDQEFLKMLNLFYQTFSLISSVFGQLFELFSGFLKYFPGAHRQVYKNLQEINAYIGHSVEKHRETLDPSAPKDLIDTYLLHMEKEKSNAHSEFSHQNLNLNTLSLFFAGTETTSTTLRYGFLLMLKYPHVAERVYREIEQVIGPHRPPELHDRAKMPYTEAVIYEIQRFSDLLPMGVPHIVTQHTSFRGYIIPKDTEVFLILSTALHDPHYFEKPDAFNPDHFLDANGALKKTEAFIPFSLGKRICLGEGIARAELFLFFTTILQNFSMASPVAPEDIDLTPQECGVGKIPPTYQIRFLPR

[3] = target: T2, Cytochrome P450 2C19 (Homo sapiens, UniProt P33261); experiment: Time-dependant inhibition of CYP2C19 in human liver microsomes; format: ADME
T2 sequence (P33261 whole entry): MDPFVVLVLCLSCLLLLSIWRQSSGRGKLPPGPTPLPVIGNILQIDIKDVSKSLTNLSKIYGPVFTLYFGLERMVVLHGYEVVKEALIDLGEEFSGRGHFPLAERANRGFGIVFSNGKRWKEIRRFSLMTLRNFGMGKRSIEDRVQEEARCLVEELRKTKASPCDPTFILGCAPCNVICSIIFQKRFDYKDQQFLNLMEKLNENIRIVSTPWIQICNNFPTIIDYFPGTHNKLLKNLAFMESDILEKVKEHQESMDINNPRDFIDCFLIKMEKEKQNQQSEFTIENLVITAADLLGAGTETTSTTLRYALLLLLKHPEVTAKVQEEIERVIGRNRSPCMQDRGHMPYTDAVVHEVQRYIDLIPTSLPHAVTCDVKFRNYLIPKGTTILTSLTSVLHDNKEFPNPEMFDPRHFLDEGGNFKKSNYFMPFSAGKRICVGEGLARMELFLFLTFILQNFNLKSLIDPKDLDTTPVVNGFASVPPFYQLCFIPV

[4] = tested on: Mus musculus; experiment: Analgesic activity in CD1 mouse model of formalin-induced nociception assessed as reduction in formalin-evoked paw flinching/licking response during first phase at 30 mg/kg, po pretreated for 30 mins followed by formalin treatment and measured during first 5 mins post formalin injection; format: functional, organism-based
[5] = tested on: Mus musculus; experiment: Analgesic activity in CD1 mouse model of formalin-induced nociception assessed as reduction in formalin-evoked paw flinching/licking response during second phase at 30 mg/kg, po pretreated for 30 mins followed by formalin treatment and measured during 15 to 45 mins post formalin injection; format: functional, organism-based
[6] = Fraction unbound in mouse plasma; format: ADME, cell-free
[7] = target: T3, Cytochrome P450 2C8 (Homo sapiens, UniProt P10632); experiment: Time-dependant inhibition of CYP2C8 in human liver microsomes; format: ADME
T3 sequence (P10632 whole entry): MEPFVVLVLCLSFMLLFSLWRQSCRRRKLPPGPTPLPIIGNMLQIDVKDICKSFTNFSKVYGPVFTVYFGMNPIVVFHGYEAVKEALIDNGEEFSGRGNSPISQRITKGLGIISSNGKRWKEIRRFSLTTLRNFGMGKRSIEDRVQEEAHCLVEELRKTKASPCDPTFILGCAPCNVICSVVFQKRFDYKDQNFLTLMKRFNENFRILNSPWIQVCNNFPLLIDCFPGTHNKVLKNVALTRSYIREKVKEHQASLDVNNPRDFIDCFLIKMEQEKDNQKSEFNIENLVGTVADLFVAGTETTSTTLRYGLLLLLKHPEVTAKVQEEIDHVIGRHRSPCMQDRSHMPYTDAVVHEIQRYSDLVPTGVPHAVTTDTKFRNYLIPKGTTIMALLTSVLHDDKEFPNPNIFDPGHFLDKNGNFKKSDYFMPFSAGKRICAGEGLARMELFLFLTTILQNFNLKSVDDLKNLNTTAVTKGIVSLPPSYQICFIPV

[8] = target: Sodium channel protein type 9 subunit alpha (Homo sapiens, UniProt Q15858); experiment: Inhibition of recombinant human Nav1.7 expressed in HEK293 cells at -70 mV holding potential by patch clamp electrophysiology method; format: cell-based
[9] = Toxicity in CD1 mouse model of formalin-induced nociception assessed as prostration or sedation at 30 mg/kg, po; format: organism-based; details: in vivo
[10] = target: T4, Cytochrome P450 3A4 (Homo sapiens, UniProt P08684); experiment: Time-dependant inhibition of CYP3A4 in human liver microsomes; format: ADME
T4 sequence (P08684 whole entry): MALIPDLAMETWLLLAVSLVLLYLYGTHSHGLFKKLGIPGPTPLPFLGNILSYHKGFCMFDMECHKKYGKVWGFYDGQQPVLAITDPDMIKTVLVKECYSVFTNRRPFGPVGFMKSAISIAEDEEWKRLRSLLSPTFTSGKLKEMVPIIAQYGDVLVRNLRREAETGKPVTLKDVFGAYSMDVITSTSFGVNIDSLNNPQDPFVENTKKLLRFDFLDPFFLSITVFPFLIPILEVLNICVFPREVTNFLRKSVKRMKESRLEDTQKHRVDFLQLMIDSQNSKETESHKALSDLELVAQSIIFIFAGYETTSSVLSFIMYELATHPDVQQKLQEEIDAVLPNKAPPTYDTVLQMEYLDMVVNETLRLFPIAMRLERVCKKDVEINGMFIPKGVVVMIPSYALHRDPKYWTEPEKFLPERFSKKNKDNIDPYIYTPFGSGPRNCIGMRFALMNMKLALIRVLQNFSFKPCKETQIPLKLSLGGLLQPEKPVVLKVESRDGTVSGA

[11] = Permeability of the compound at pH 7.4 by PAMPA; format: ADME; details: read-out: permeability
[12] = Permeability from apical to basolateral side in human Caco2 cells; format: ADME, cell-based; details: Caco-2, read-out: permeability
[13] = Toxicity in CD1 mouse model of formalin-induced nociception assessed as hypothermia at 30 mg/kg, po; format: organism-based; details: in vivo
[14] = Metabolic stability in rat liver microsomes assessed as parent compound remaining at 0.5 uM after 10 mins; format: ADME, Microsome; details: read-out: Stability
[15] = target: T5, Sodium channel protein type 9 subunit alpha (Mus musculus, UniProt Q62205); experiment: Inhibition of recombinant mouse Nav1.7 expressed in HEK293 cells at -70 mV holding potential by patch clamp electrophysiology method; format: cell-based
T5 sequence (Q62205 whole entry): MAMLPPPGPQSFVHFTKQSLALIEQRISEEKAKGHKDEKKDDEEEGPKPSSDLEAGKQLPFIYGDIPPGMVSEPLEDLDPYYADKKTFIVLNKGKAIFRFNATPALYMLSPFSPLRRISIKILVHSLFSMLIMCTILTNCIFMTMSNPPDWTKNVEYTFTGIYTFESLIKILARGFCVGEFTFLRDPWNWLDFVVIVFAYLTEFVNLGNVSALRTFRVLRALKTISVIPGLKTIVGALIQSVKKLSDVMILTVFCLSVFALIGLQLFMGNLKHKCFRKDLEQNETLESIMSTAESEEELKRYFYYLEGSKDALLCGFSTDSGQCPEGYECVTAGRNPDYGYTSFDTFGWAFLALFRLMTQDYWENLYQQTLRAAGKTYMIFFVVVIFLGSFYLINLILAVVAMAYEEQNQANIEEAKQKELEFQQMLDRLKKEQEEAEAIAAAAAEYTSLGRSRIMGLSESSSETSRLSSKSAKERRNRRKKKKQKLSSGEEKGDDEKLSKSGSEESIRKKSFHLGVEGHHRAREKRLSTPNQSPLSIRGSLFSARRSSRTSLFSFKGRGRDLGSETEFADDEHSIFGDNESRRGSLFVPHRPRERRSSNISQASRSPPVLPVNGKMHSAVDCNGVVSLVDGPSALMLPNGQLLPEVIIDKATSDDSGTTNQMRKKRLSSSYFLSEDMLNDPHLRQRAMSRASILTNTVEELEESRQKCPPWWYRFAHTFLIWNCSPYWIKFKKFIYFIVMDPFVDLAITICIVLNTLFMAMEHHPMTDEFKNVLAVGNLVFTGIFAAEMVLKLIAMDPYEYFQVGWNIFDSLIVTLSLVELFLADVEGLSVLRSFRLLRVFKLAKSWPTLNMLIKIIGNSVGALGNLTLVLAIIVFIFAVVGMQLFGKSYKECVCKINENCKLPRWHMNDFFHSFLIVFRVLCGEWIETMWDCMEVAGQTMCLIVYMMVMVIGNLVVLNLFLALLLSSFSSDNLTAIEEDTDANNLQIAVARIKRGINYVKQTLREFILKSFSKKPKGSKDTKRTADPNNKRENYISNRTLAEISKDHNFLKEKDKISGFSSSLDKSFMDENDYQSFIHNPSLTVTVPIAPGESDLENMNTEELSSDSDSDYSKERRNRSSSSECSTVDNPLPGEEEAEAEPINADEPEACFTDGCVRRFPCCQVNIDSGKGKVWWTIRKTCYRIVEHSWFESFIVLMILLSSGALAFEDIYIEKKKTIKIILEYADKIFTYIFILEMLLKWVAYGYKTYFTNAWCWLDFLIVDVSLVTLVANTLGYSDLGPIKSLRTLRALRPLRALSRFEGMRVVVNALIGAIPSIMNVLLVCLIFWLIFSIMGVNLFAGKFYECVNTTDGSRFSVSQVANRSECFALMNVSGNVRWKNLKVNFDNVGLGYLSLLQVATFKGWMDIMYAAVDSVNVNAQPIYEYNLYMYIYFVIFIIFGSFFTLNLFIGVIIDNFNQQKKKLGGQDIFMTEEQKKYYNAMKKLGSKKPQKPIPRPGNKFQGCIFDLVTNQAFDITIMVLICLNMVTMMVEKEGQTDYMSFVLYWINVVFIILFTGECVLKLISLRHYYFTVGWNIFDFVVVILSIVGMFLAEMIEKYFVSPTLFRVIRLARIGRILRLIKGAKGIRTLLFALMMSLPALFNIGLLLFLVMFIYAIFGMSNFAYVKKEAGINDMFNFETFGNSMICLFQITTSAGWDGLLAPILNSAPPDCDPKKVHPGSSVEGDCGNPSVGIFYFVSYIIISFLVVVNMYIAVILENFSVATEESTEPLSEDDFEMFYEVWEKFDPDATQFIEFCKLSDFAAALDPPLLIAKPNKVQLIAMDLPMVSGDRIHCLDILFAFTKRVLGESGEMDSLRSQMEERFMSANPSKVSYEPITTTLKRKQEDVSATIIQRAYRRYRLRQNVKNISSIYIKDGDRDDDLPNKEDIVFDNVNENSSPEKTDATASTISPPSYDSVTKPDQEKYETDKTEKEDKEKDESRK

[16] = target: T6, Cytochrome P450 2C9 (Homo sapiens, UniProt P11712); experiment: Inhibition of CYP2C9 in human liver microsomes; format: ADME; details: human, microsomes
T6 sequence (P11712 whole entry): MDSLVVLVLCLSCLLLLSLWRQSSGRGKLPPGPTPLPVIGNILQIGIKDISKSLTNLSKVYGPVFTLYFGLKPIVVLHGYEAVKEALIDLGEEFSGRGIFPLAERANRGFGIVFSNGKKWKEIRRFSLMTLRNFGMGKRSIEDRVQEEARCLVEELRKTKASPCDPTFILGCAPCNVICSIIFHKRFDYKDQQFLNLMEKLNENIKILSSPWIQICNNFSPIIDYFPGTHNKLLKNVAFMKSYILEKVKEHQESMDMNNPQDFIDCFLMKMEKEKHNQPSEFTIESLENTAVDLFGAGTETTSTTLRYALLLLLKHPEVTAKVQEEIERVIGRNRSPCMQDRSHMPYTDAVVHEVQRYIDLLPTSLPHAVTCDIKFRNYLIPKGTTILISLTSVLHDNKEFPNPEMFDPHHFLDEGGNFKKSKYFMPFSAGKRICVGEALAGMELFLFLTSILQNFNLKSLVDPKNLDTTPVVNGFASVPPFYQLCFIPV

[17] = target: T7, Cytochrome P450 2D6 (Homo sapiens, UniProt P10635); experiment: Time-dependant inhibition of CYP2D6 in human liver microsomes; format: ADME
T7 sequence (P10635 whole entry): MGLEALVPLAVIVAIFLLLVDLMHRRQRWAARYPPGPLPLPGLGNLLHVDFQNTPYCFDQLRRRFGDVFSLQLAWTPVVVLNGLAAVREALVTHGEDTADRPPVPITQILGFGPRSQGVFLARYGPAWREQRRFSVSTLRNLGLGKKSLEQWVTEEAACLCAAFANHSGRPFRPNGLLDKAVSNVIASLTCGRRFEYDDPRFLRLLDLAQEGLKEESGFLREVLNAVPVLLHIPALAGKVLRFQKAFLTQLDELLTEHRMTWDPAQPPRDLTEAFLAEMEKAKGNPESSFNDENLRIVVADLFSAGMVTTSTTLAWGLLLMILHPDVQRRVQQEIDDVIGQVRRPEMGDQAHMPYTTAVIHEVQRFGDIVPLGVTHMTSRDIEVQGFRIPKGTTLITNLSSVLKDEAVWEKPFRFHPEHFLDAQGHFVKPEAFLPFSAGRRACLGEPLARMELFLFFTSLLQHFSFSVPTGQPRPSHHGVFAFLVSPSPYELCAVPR

[18] = Fraction unbound in human plasma; format: ADME, cell-free
[19] = target: T4, Cytochrome P450 3A4; experiment: Inhibition of CYP3A4 in human liver microsomes; format: ADME; details: human, microsomes
[20] = Metabolic stability in mouse liver microsomes assessed as parent compound remaining at 0.5 uM after 10 mins; format: ADME, Microsome; details: read-out: Stability
[21] = target: T6, Cytochrome P450 2C9; experiment: Time-dependant inhibition of CYP2C9 in human liver microsomes; format: ADME
[22] = target: T1, Cytochrome P450 2B6; experiment: Inhibition of CYP2B6 in human liver microsomes; format: ADME; details: human, microsomes
[23] = target: T2, Cytochrome P450 2C19; experiment: Inhibition of CYP2C19 in human liver microsomes; format: ADME; details: human, microsomes
[24] = Unbound plasma concentration in CD1 mouse model of formalin-induced nociception at 30 mg/kg, po; format: ADME, organism-based; details: in vivo
[25] = Plasma concentration in CD1 mouse model of formalin-induced nociception at 30 mg/kg, po; format: ADME, organism-based; details: read-out: Cp, in vivo
[26] = target: T7, Cytochrome P450 2D6; experiment: Inhibition of CYP2D6 in human liver microsomes; format: ADME; details: human, microsomes
[27] = Permeability from basolateral to apical side in human Caco2 cells; format: ADME, cell-based; details: Caco-2, read-out: permeability
[28] = Metabolic stability in human liver microsomes assessed as parent compound remaining at 0.5 uM after 10 mins; format: ADME, Microsome; details: read-out: Stability
[29] = target: T3, Cytochrome P450 2C8; experiment: Inhibition of CYP2C8 in human liver microsomes; format: ADME; details: human, microsomes
[30] = target: T5, Sodium channel protein type 9 subunit alpha; experiment: Inhibition of Nav1.7 in mouse DRG neurons at -70 mV holding potential by patch clamp electrophysiology method
[31] = Efflux ratio of permeability in human Caco2 cells; format: ADME, cell-based; details: Caco-2
[32] = Unbound plasma concentration in CD1 mouse model of formalin-induced nociception at 3 mg/kg, po; format: ADME, organism-based; details: in vivo
[33] = Plasma concentration in CD1 mouse model of formalin-induced nociception at 3 mg/kg, po; format: ADME, organism-based; details: read-out: Cp, in vivo

Row | Papp [1] | TDI [2] | TDI [3] | fraction unbound [6] | TDI [7] | IC50 [8] | TDI [10] | Papp [11] | remaining at 10 min, 0.5 µM [14] | inhibition (INH) [16] | TDI [17] | inhibition (INH) [19] | TDI [21] | inhibition (INH) [22] | inhibition (INH) [23] | inhibition (INH) [26] | SMILES | Activity [4] | Activity [5] | Activity [9] | Activity [13] | further results
1 | 32.5 ×10⁻⁶ cm/s | Not Active | Not Active | 0.007 | Not Active | 12 nM | Not Active | 6 ×10⁻⁶ cm/s | 82% | Not Active | Not Active | Not Active | Not Active | Not Active | Not Active | Not Active | Cn1cc(-c2ccc(C(F)F)cc2)c2cc(F)c(C(=O)NS(=O)(=O)C3CC3)cc21 | inactive | inactive | Non-Toxic | Non-Toxic | Papp A→B [12]: 8.1 ×10⁻⁶ cm/s; IC50 [15]: 231 nM; fraction unbound [18]: 0.003; remaining at 10 min, 0.5 µM [20]: 86%; Cp(f) [24]: 1211 nM; concentration [25]: 173000 nM; Papp B→A [27]: 19.5 ×10⁻⁶ cm/s; remaining at 10 min, 0.5 µM [28]: 93%; inhibition (INH) [29]: Not Active; IC50 [30]: 12 nM; efflux ratio [31]: 2.4
2 | 116 ×10⁻⁶ cm/s | Not Active | Not Active | 0.002 | Not Active | 11 nM | Not Active | 41.7 ×10⁻⁶ cm/s | 100% | Not Active | Not Active | Not Active | Not Active | Not Active | Not Active | Not Active | CC(C)COc1ncc(-c2nn(C)c3cc(C(=O)NS(C)(=O)=O)ccc23)cc1Cl | inactive | inactive | Toxic | Toxic | Cp(f) [32]: 0.56 nM; concentration [33]: 280 nM; remaining at 10 min, 0.5 µM [20]: 100%; remaining at 10 min, 0.5 µM [28]: 100%; inhibition (INH) [29]: Not Active; IC50 [30]: 12 nM
3 | 166 ×10⁻⁶ cm/s | Not Active | Not Active | 0.0035 | Not Active | 5 nM | Not Active | 32.3 ×10⁻⁶ cm/s | 100% | Not Active | Not Active | Not Active | Not Active | Not Active | Not Active | Not Active | Cn1cc(-c2ccc(C(F)(F)F)cc2)c2cc(F)c(C(=O)NS(=O)(=O)C3CC3)cc21 | inactive | inactive | Non-Toxic | Non-Toxic | Papp A→B [12]: 4.6 ×10⁻⁶ cm/s; IC50 [15]: 27 nM; fraction unbound [18]: 0.0025; Cp(f) [24]: 490 nM; concentration [25]: 140000 nM; Papp B→A [27]: 8.6 ×10⁻⁶ cm/s; remaining at 10 min, 0.5 µM [28]: 100%; inhibition (INH) [29]: Not Active; IC50 [30]: 5 nM; efflux ratio [31]: 1.9
